ChEMBL document CHEMBL1133410, “Synthesis of enantiomerically pure (+)- and (-)-18-methoxycoronaridine hydrochloride and their preliminary assessment as anti-addictive agents” (Bioorg Med Chem Lett, 2000)
Where a name gives a salt, the structure may show the parent alone.

Molecular target: Mu-type opioid receptor (Bos taurus, UniProt P79350)
Experiment: Binding affinity against Opioid receptor mu 1 of calf cortex using […] as radioligand

Chain of Mu-type opioid receptor (P79350 whole entry): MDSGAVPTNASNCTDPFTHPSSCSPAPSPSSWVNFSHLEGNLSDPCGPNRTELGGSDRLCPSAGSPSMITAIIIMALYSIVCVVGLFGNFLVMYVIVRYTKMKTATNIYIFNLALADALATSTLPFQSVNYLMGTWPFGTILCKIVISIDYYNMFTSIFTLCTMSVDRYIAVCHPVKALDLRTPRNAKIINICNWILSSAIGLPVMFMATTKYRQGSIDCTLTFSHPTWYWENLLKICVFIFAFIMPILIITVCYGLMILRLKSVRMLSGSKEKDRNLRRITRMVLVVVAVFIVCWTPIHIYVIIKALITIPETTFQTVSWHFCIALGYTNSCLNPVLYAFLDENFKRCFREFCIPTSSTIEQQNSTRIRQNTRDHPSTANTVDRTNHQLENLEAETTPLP

SMILES: COCCC1CC2CN3CCc4c([nH]c5ccccc45)C(C(=O)OC)(C2)C13 (stereo in doubt; (+)) [ZOLUNICANT HYDROCHLORIDE]
- Ki: 0.74 µM

SMILES: COCCC1CC2CN3CCc4c([nH]c5ccccc45)C(C(=O)OC)(C2)C13 (stereo in doubt; (-)) [ZOLUNICANT HYDROCHLORIDE]
- Ki: 13 µM

SMILES: COCCC1CC2CN3CCc4c([nH]c5ccccc45)C(C(=O)OC)(C2)C13 (racemic) [ZOLUNICANT HYDROCHLORIDE]
- Ki: 1.1 µM
